How the values were obtained:
[1] = target: cerebellar granule neurones; assay type: cell-based, rat; details: 48 h
Experimental: Cerebellar granule neurones were used in the examples to test neuroprotection by CRF receptor agonists. Cerebellar granule neurones (CGNs) undergo apoptosis during the first few weeks of postnatal life, and in culture require mildly depolarising concentrations of KCl (25 mM) for their survival and maturation (S. R: D'Mello et al., Proc. Natl. Acad. Sci. USA 90, 10989-10993, 1993). The growth signal provided by KCl depends upon activation of the phosphatidylinositol 3-kinase (PI 3-kinase) pathway, and pharmacological inhibition of PI 3-kinase in differentiated granule neurones leads to apoptotic death in the CGNs (T. M. Miller et al., J. Biol. Chem., 272, 9847-9853, 1997). Thus, cultured CGNs represent a suitable model to study mechanisms of programmed cell death, and to identify putative neuroprotective signalling pathways.
Assay 1: Cerebellar granule neurones prepared from postnatal day 8 Sprague Dawley rat pups were used for experiments on death induced by inhibition of PI 3-kinase. General culture methods are described in S. D. Skaper et al. in Methods in Neurosciences, Vol. 2 (Conn P. M., ed), pp. 17-33. Academic Press, San Diego, 1990. At 8-9 days in vitro (DIV), granule neurone cultures were shifted to phenol red-free Dulbecco's modified Eagle's medium lacking serum, and containing 0.05% bovine serum albumin and 25 mM KCl. Death was induced by addition of the PI 3-kinase inhibitor LY 294002 (75 μM). CRF or CRF agonist peptides (urotensin 1, urocortin, sauvagine) were added at different concentrations (from 0.3nM to 300 nM or 1000 nM) together with LY 294002. Forty-eight hours later neuronal survival was quantified by a colorimetric reaction MTT. Absolute MTT values obtained were normalised for small differences in interexperiment plating densities by scaling to the mean of sham-treated sister cultures (defined as 100%).
Results are shown in Table 1 below and in graphical form in FIG. 1, which show the percentage mean neuronal survival (and standard deviation), when in the presence of the relevant CRF receptor agonists and LY 294002, as a function of agonist concentration. […] Urotensin 1, urocortin and sauvagine were also neuroprotective albeit with lower potency (<1 μM).

[2] = test system: cerebellar granule neurones; assay: Assay 3: intracellular cyclic AMP enzyme immunoassay; assay type: cell-based, rat; details: agonist 0 to 30 nM, 15 min, 0.5 mM IBMX
Experimental: Assay 3: The production of cAMP by the CRF receptor agonist peptides CRF, urotensin 1, urocortin and sauvagine was measured as follows. This assay can be used analogously for any putative CRF receptor agonists including non-peptide agonists.
Intracellular cyclic AMP was measured with a cAMP 2-site enzyme immunoassay system (trade mark BIOTRAK, commercially available from Amersham Pharmacia Biotech, PO Box 164, Rainham, Essex RM13 8JZ, United Kingdom, Amersham catalogue number RPN225), based upon the use of a sensitive and highly specific capture antibody for cyclic AMP:
Cerebellar granule neurones were seeded in polylysine-coated […] plates, 3.5×10^5 cells per 48-well, in Basal medium Eagle's containing 10% fetal calf serum, 25 mM KCl, and antibiotics. At 8-9 days in vitro, granule neurone cultures were shifted to serum-free plating medium (0.4 ml) with 0.5 mM IBMX (to inhibit the breakdown of cyclic AMP) for 15 min (37° C.). Wells then received 0.1 ml of test peptide (5× final concentration). Generally 1 μM is the preferable final concentration for a putative CRF agonist under test, though different (e.g. lower) concentrations can be used as shown for the peptide agonists in FIG. 3. Incubation was continued for 15 min. Test medium was removed and the plate placed on dry ice, and stored at −140° C. Cyclic AMP analysis was performed the following day.
Cells were then lysed with the reagent provided with the BIOTRAK kit. Intracellular content of cyclic AMP in the lysates was assayed following the manufacturer's instructions. A standard curve was constructed using the cyclic AMP calibration provided, with the quantity of bound cyclic AMP being inversely proportional to the amount of second (chromogenic) antibody bound to the reaction wells. The colour product was read with an ELISA plate reader, and was a function of the amount of cyclic AMP in the unknown sample.

H-SQEPPISLDLTFHLLREVLEMTKADQLAQQAHNNRKLLDIA-NH2 [CRF]
EC50 [1]: ~10 nM | cAMP synthesis induced by agonist (FIG. 3) [2]: cAMP production increased with agonist concentration

From patent publication US20080113908A1, “Use of CRF receptor agonists for the treatment or Prophylaxis of diseases, for example Neurodegenerative diseases” (SmithKline Beecham plc, priority 2000, published 2008)
